Experimental data published in patent publication US6525001B1, “Substituted pyrimidine and pyridine herbicides” (Mid-American Commercialization Corporation, priority 1997, dated 2003).

Assays:
Test in all cases: Test B pre-/postemergence
Format in all cases: in vivo
Parameters in all cases: key: 0 is no effect; 10 is complete control
[1] = system: blackgrass (Alopecurus myosuroides)
Procedure, shortened: (§1)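 Response scores run from 0, meaning no effect, to 10, meaning complete control, assigned by eye relative to controls twelve to sixteen days after spraying. Treatment was both preemergence on planted seed and postemergence on plants at the 1- to 4-leaf stage.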

[2] = system: broadleaf signalgrass (Brachiaria decumbens)
Procedure, shortened: as §1

[3] = system: cocklebur (Xanthium strumarium)
Procedure, shortened: as §1

corn (Zea mays) = system: corn (Zea mays)
Procedure, shortened: as §1

[4] = system: crabgrass (Digitaria sanguinalis)
Procedure, shortened: as §1

[5] = system: giant foxtail (Setaria faberii)
Procedure, shortened: as §1

[6] = system: momingglory (Ipomoea hederacea)
Procedure, shortened: as §1

[7] = system: pigweed (Amaranthus retroflexus)
Procedure, shortened: as §1

[8] = system: purple nutsedge (Cyperus rotundus)
Procedure, shortened: as §1

soybean (Glycine max) = system: soybean (Glycine max)
Procedure, shortened: as §1

[9] = system: sugar beet (Beta vulgaris)
Procedure, shortened: as §1

[10] = system: velvetleaf (Abutilon theophrasti)
Procedure, shortened: as §1

[11] = system: wheat (Triticum aestivum)
Procedure, shortened: as §1

wild oat (Avena fatua) = system: wild oat (Avena fatua)
Procedure, shortened: as §1

SMILES: Cc1cnc(-c2ccc(C(F)(F)F)cc2)nc1Cn1cnc(C(F)(F)F)c1 [Compound 10]
- Plant response rating, Blackgrass ([1]; Rate 62 g/ha, Postemergence): 1
- Blackgrass plant response rating ([1]; Rate 62 g/ha, Preemergence): 1
- Plant response rating, Blackgrass ([1]; Rate 125 g/ha, Postemergence): 1
- Blackgrass plant response rating ([1]; Rate 125 g/ha, Preemergence): 2
- Plant response rating, Blackgrass ([1]; Rate 250 g/ha, Postemergence): 3
- Plant response rating, Blackgrass ([1]; Rate 250 g/ha, Preemergence): 2
- Plant response rating, Blackgrass ([1]; Rate 500 g/ha, Postemergence): 3
- Plant response rating, Blackgrass ([1]; Rate 500 g/ha, Preemergence): 3
- Plant response rating, B. signalgrass ([2]; Rate 62 g/ha, Postemergence): 2
- B. signalgrass plant response rating ([2]; Rate 62 g/ha, Preemergence): 1
- Plant response rating, B. signalgrass ([2]; Rate 125 g/ha, Postemergence): 3
- B. signalgrass plant response rating ([2]; Rate 125 g/ha, Preemergence): 1
- Plant response rating, B. signalgrass ([2]; Rate 250 g/ha, Postemergence): 3
- Plant response rating, B. signalgrass ([2]; Rate 250 g/ha, Preemergence): 2
- Plant response rating, B. signalgrass ([2]; Rate 500 g/ha, Postemergence): 3
- Plant response rating, B. signalgrass ([2]; Rate 500 g/ha, Preemergence): 4
- Plant response rating, Cocklebur ([3]; Rate 62 g/ha, Postemergence): 6
- Plant response rating, Cocklebur ([3]; Rate 125 g/ha, Postemergence): 8
- Plant response rating, Cocklebur ([3]; Rate 250 g/ha, Postemergence): 9
- Plant response rating, Cocklebur ([3]; Rate 250 g/ha, Preemergence): 1
- Plant response rating, Cocklebur ([3]; Rate 500 g/ha, Postemergence): 9
- Plant response rating, Cocklebur ([3]; Rate 500 g/ha, Preemergence): 3
- Plant response rating, Corn (corn (Zea mays); Rate 62 g/ha, Postemergence): 2
- Corn plant response rating (corn (Zea mays); Rate 62 g/ha, Preemergence): 0
- Plant response rating, Corn (corn (Zea mays); Rate 125 g/ha, Postemergence): 2
- Corn plant response rating (corn (Zea mays); Rate 125 g/ha, Preemergence): 0
- Plant response rating, Corn (corn (Zea mays); Rate 250 g/ha, Postemergence): 3
- Plant response rating, Corn (corn (Zea mays); Rate 250 g/ha, Preemergence): 0
- Plant response rating, Corn (corn (Zea mays); Rate 500 g/ha, Postemergence): 3
- Plant response rating, Corn (corn (Zea mays); Rate 500 g/ha, Preemergence): 1
- Plant response rating, Crabgrass ([4]; Rate 62 g/ha, Postemergence): 2
- Crabgrass plant response rating ([4]; Rate 62 g/ha, Preemergence): 5
- Plant response rating, Crabgrass ([4]; Rate 125 g/ha, Postemergence): 2
- Crabgrass plant response rating ([4]; Rate 125 g/ha, Preemergence): 7
- Plant response rating, Crabgrass ([4]; Rate 250 g/ha, Postemergence): 4
- Plant response rating, Crabgrass ([4]; Rate 250 g/ha, Preemergence): 9
- Plant response rating, Crabgrass ([4]; Rate 500 g/ha, Postemergence): 6
- Plant response rating, Crabgrass ([4]; Rate 500 g/ha, Preemergence): 9
- Plant response rating, Giant foxtail ([5]; Rate 62 g/ha, Postemergence): 2
- Giant foxtail plant response rating ([5]; Rate 62 g/ha, Preemergence): 3
- Plant response rating, Giant foxtail ([5]; Rate 125 g/ha, Postemergence): 2
- Giant foxtail plant response rating ([5]; Rate 125 g/ha, Preemergence): 7
- Plant response rating, Giant foxtail ([5]; Rate 250 g/ha, Postemergence): 4
- Plant response rating, Giant foxtail ([5]; Rate 250 g/ha, Preemergence): 8
- Plant response rating, Giant foxtail ([5]; Rate 500 g/ha, Postemergence): 5
- Plant response rating, Giant foxtail ([5]; Rate 500 g/ha, Preemergence): 9
- Plant response rating, Morningglory ([6]; Rate 62 g/ha, Postemergence): 5
- Morningglory plant response rating ([6]; Rate 62 g/ha, Preemergence): 2
- Plant response rating, Morningglory ([6]; Rate 125 g/ha, Postemergence): 7
- Morningglory plant response rating ([6]; Rate 125 g/ha, Preemergence): 3
- Plant response rating, Morningglory ([6]; Rate 250 g/ha, Postemergence): 7
- Plant response rating, Morningglory ([6]; Rate 250 g/ha, Preemergence): 9
- Plant response rating, Morningglory ([6]; Rate 500 g/ha, Postemergence): 9
- Plant response rating, Morningglory ([6]; Rate 500 g/ha, Preemergence): 10
- Plant response rating, Redroot pigweed ([7]; Rate 62 g/ha, Postemergence): 9
- Redroot pigweed plant response rating ([7]; Rate 62 g/ha, Preemergence): 3
- Plant response rating, Redroot pigweed ([7]; Rate 125 g/ha, Postemergence): 9
- Redroot pigweed plant response rating ([7]; Rate 125 g/ha, Preemergence): 6
- Plant response rating, Redroot pigweed ([7]; Rate 250 g/ha, Postemergence): 9
- Plant response rating, Redroot pigweed ([7]; Rate 250 g/ha, Preemergence): 7
- Plant response rating, Redroot pigweed ([7]; Rate 500 g/ha, Postemergence): 9
- Plant response rating, Redroot pigweed ([7]; Rate 500 g/ha, Preemergence): 7
- Plant response rating, Nutsedge ([8]; Rate 62 g/ha, Postemergence): 0
- Nutsedge plant response rating ([8]; Rate 62 g/ha, Preemergence): 0
- Plant response rating, Nutsedge ([8]; Rate 125 g/ha, Postemergence): 0
- Nutsedge plant response rating ([8]; Rate 125 g/ha, Preemergence): 0
- Plant response rating, Nutsedge ([8]; Rate 250 g/ha, Postemergence): 0
- Plant response rating, Nutsedge ([8]; Rate 250 g/ha, Preemergence): 0
- Plant response rating, Nutsedge ([8]; Rate 500 g/ha, Postemergence): 3
- Plant response rating, Nutsedge ([8]; Rate 500 g/ha, Preemergence): 0
- Plant response rating, Soybean (soybean (Glycine max); Rate 62 g/ha, Postemergence): 6
- Soybean plant response rating (soybean (Glycine max); Rate 62 g/ha, Preemergence): 0
- Plant response rating, Soybean (soybean (Glycine max); Rate 125 g/ha, Postemergence): 6
- Soybean plant response rating (soybean (Glycine max); Rate 125 g/ha, Preemergence): 0
- Plant response rating, Soybean (soybean (Glycine max); Rate 250 g/ha, Postemergence): 8
- Plant response rating, Soybean (soybean (Glycine max); Rate 250 g/ha, Preemergence): 1
- Plant response rating, Soybean (soybean (Glycine max); Rate 500 g/ha, Postemergence): 8
- Plant response rating, Soybean (soybean (Glycine max); Rate 500 g/ha, Preemergence): 1
- Plant response rating, Sugarbeets ([9]; Rate 62 g/ha, Postemergence): 8
- Sugarbeets plant response rating ([9]; Rate 62 g/ha, Preemergence): 6
- Plant response rating, Sugarbeets ([9]; Rate 125 g/ha, Postemergence): 8
- Plant response rating, Sugarbeets ([9]; Rate 250 g/ha, Postemergence): 9
- Plant response rating, Sugarbeets ([9]; Rate 250 g/ha, Preemergence): 6
- Plant response rating, Sugarbeets ([9]; Rate 500 g/ha, Postemergence): 9
- Plant response rating, Sugarbeets ([9]; Rate 500 g/ha, Preemergence): 10
- Plant response rating, Velvetleaf ([10]; Rate 62 g/ha, Postemergence): 6
- Velvetleaf plant response rating ([10]; Rate 62 g/ha, Preemergence): 5
- Plant response rating, Velvetleaf ([10]; Rate 125 g/ha, Postemergence): 7
- Velvetleaf plant response rating ([10]; Rate 125 g/ha, Preemergence): 7
- Plant response rating, Velvetleaf ([10]; Rate 250 g/ha, Postemergence): 8
- Plant response rating, Velvetleaf ([10]; Rate 250 g/ha, Preemergence): 8
- Plant response rating, Velvetleaf ([10]; Rate 500 g/ha, Postemergence): 9
- Plant response rating, Velvetleaf ([10]; Rate 500 g/ha, Preemergence): 8
- Plant response rating, Wheat ([11]; Rate 62 g/ha, Postemergence): 2
- Wheat plant response rating ([11]; Rate 62 g/ha, Preemergence): 0
- Plant response rating, Wheat ([11]; Rate 125 g/ha, Postemergence): 3
- Wheat plant response rating ([11]; Rate 125 g/ha, Preemergence): 0
- Plant response rating, Wheat ([11]; Rate 250 g/ha, Postemergence): 3
- Plant response rating, Wheat ([11]; Rate 250 g/ha, Preemergence): 0
- Plant response rating, Wheat ([11]; Rate 500 g/ha, Postemergence): 3
- Plant response rating, Wheat ([11]; Rate 500 g/ha, Preemergence): 1
- Plant response rating, Wild oats (wild oat (Avena fatua); Rate 62 g/ha, Postemergence): 2
- Wild oats plant response rating (wild oat (Avena fatua); Rate 62 g/ha, Preemergence): 0
- Plant response rating, Wild oats (wild oat (Avena fatua); Rate 125 g/ha, Postemergence): 2
- Wild oats plant response rating (wild oat (Avena fatua); Rate 125 g/ha, Preemergence): 1
- Plant response rating, Wild oats (wild oat (Avena fatua); Rate 250 g/ha, Postemergence): 2
- Plant response rating, Wild oats (wild oat (Avena fatua); Rate 250 g/ha, Preemergence): 2
- Plant response rating, Wild oats (wild oat (Avena fatua); Rate 500 g/ha, Postemergence): 3
- Plant response rating, Wild oats (wild oat (Avena fatua); Rate 500 g/ha, Preemergence): 4
